The results in this text go back to patent US20150210641A1, “NOVEL CYTOCHROME P450 INHIBITORS AND THEIR METHOD OF USE” (CORTENDO AB (PUBL), priority 2014, published 2015).

Where only a bound is given, the exact number is not on record here.

Holding throughout (assay type): cell-based
One assay deals with T1, recombinant CYP-11 (Homo sapiens, UniProt P15538).
T1 construct: expressed in transfected cells
T1 sequence (P15538 25-503): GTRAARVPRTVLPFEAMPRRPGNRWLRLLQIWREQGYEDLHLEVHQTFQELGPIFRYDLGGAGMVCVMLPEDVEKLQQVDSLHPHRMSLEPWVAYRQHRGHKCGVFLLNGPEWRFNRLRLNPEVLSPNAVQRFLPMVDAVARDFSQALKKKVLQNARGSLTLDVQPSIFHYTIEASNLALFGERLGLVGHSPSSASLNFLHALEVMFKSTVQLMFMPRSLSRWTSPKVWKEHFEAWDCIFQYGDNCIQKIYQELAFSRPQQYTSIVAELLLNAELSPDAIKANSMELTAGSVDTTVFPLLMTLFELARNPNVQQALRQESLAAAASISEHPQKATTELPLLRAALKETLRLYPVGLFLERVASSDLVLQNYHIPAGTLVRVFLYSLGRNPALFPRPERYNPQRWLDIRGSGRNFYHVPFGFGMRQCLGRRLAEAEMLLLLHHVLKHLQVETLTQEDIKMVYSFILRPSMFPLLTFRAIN
Description: Cyp11 assay: cortisol formation from 11-deoxycortisol in AD293 cells, LC/MS. Conditions: AD293 cells stably over-expressing recombinant CYP-11; eight concentrations 10 μM to 4.5 nM. On the procedure:
Cyp11 assay protocol: AD293 cells that stably over-express recombinant CYP-11 were seeded in 96 well plates coated with poly D-lysine (15,000 cell per well) and incubated at 37° C. for 24 hours in Dulbecco's Modified Eagle Medium (DMEM) with Fetal Bovine Serum (FBS) that is stripped of hormones by charcoal treatment. The media is then removed, the cells are washed once with Phosphate buffer saline solution, and 50 μL Dulbecco's Modified Eagle Medium (DMEM) with Fetal Bovine Serum (FBS) that is stripped of hormones by charcoal treatment is added. Compounds of the disclosure are then added to the wells in eight concentration spanning 10 μM to 4.5 nM, and the plates are incubated for an additional 60 minutes at 37° C. 11-deoxycortisol is then added ([…]) and the plates are incubated for an additional 12 hours at 37° C. After incubation, 50 uL of the supernatant (medium) is transferred into a fresh plate and 150 uL of an acetonitrile solution containing 200 ng/ml of Telmisartan is added. The sample is mixed and then placed in a centrifuge at 2000 rpm for 5 minutes. 100 uL of the supernatant is transferred into a fresh 96 well deep well plate, 100 uL of 1:1 methanol: water was added, the solution was mixed and then analyzed by LC/MS for the presence of cortisol using an Agilent 1200 RRLC/ABSCIEX API4000 LC-MS or Shimadzu Prominance/ABSCIEX API4000 LC-MS to determine IC50s of the compounds of the disclosure.

The target of a further assay is T2, recombinant CYP-21 (Homo sapiens, UniProt P08686).
T2 construct: expressed in transfected cells
T2 sequence (P08686 1-495): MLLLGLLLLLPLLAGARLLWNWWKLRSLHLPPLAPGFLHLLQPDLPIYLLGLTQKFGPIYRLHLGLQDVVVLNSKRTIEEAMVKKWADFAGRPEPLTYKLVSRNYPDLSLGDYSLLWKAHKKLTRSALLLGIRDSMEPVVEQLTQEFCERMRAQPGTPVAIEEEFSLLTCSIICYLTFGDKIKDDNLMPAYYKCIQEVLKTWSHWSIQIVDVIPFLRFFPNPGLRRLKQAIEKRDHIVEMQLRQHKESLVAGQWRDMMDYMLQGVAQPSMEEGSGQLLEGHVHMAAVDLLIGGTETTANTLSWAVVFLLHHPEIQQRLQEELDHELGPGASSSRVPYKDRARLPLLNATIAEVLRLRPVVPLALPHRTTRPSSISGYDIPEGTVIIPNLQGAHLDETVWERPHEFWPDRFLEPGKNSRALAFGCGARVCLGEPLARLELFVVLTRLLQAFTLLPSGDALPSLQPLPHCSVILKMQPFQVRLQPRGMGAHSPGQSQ
Briefly: Cyp21 assay: 11-deoxycortisol formation from 17-OH Progesterone in AD293 cells, LC/MS. Conditions: AD293 cells stably over-expressing recombinant CYP-21; eight concentrations 10 μM to 4.5 nM. As for the experimental part: Cyp21 assay protocol: AD293 cells that stably over-express recombinant CYP-21 were seeded in 96 well plates coated with poly D-lysine (10,000 cell per well) and incubated at 37° C. for 24 hours in Dulbecco's Modified Eagle Medium (DMEM) with Fetal Bovine Serum (FBS) that is stripped of hormones by charcoal treatment. The media is then removed, the cells are washed once with Phosphate buffer saline solution, and 50 μL Dulbecco's Modified Eagle Medium (DMEM) with Fetal Bovine Serum (FBS) that is stripped of hormones by charcoal treatment is added. Compounds of the disclosure are then added to the wells in eight concentration spanning 10 μM to 4.5 nM, and the plates are incubated for an additional 60 minutes at 37° C. 17-OH Progesterone is then added ([…]) and the plates are incubated for an additional 45 minutes at 37° C. After incubation, 50 uL of the supernatant (medium) is transferred into a fresh plate and 150 uL of an acetonitrile solution containing 200 ng/ml of Telmisartan is added. The sample is mixed and then placed in a centrifuge at 2000 rpm for 5 minutes.

The target of a further assay is T3, recombinant CYP-17 (Homo sapiens, UniProt P05093).
T3 construct: expressed in transfected cells
T3 sequence (P05093 1-508): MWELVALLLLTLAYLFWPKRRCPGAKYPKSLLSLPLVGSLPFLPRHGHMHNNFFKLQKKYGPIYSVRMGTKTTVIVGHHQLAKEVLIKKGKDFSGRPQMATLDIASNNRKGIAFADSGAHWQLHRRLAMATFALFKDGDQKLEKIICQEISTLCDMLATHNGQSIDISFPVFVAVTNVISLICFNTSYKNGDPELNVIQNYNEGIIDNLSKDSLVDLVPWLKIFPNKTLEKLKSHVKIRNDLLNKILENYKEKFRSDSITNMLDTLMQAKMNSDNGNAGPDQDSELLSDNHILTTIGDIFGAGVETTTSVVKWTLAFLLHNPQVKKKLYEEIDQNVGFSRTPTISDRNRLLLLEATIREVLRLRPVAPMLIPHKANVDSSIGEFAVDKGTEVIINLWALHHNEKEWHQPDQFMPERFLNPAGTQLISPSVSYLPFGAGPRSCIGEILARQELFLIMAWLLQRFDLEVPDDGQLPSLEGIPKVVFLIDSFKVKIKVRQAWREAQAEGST
Description: Cyp17 assay: 3H-acetic acid release from [21-3H] 17α-hydroxyl-Pregnenolone in AD293 cells. Conditions: AD293 cells stably over-expressing recombinant CYP-17; eight concentrations 10 μM to 4.5 nM. As for the experimental part:
Cyp17 assay protocol: AD293 cells that stably over-express recombinant CYP-17 were seeded in 96 well plates coated with poly D-lysine (15,000 cell per well) and incubated at 37° C. for 24 hours in Dulbecco's Modified Eagle Medium (DMEM) with Fetal Bovine Serum (FBS) that is stripped of hormones by charcoal treatment. The media is then removed, the cells are washed once with Phosphate buffer saline solution, and 50 μL Dulbecco's Modified Eagle Medium (DMEM) with Fetal Bovine Serum (FBS) that is stripped of hormones by charcoal treatment is added. Compounds of the disclosure are then added to the wells in eight concentration spanning 10 μM to 4.5 nM, and the plates are incubated for an additional 60 minutes at 37° C. [21-^3H] 17α-hydroxyl-Pregnenolone is then added (50 nCi per well, 31.25 nM) and the plates are incubated for an additional 4 hours at 37° C. The media is then collected, 200 μL of chloroform is added, and the mixture is shaken for 1 hour. The aqueous layer is then separated and analyzed for the presence of ^3H-acetic acid using a Perkin Elmer Topcount NXT to determine IC50s of the compounds of the disclosure.

As usually defined, the IC50 is the concentration at which inhibition is half-maximal. As to `COc1cc(F)ccc1-c1ccc(C(c2ccncc2)N2CCN(c3ccccc3)CC2)cc1` (stereo not drawn) [Entry 22, 1-((4′-fluoro-2′-methoxy-[1,1′-biphenyl]-4-yl)(pyridin-4-yl)methyl)-4-phenylpiperazine], the half-inhibitory concentration (IC50) at recombinant CYP-11 was at least 10 µM; on recombinant CYP-21, at least 10 µM; on recombinant CYP-17, 180 nM.
`COc1cc(F)ccc1-c1ccc(C(c2ccncc2)N2CCC(O)CC2)cc1` (stereo not drawn) [Entry 29, 1-((4′-fluoro-2′-methoxy-[1,1′-biphenyl]-4-yl)(pyridin-4-yl)methyl)piperidin-4-ol]: the IC50 on recombinant CYP-11 is at least 10 µM; at recombinant CYP-21, 4 µM; at recombinant CYP-17 it was 12 nM.
The like results for `COc1cc(F)ccc1-c1ccc(C(c2ccncc2)N2CCN(C)CC2)cc1` (stereo not drawn) [Entry 20, 1-((4′-fluoro-2′-methoxy-[1,1′-biphenyl]-4-yl)(pyridin-4-yl)methyl)-4-methylpiperazine] were, in that order, at least 10 µM, at least 10 µM and 107 nM.
